Read-outs that look alike come from different tables or passages of the source.

Experiment [1] has as its system GM1 production in Jurkat cells. In words: cells. In kind it is cell-based.
The target in experiment [2] is glucosylceramide synthase (GCS) (Homo sapiens (Human), UniProt Q16739). In words: Evaluation of inhibitory activities against GCS (A549 cell lysate, NBD C6-ceramide, HPLC). In kind it is biochemical. The procedure:
The inhibitory activities of the compounds of the present invention against GCS were evaluated, as follows, according to the method described in the known literature (Hayashi Y et al., A sensitive and reproducible assay to measure the activity of glucosylceramide synthase and lactosylceramide synthase using HPLC and fluorescent substrates, Analytical Biochemistry 345 (2005) 181-186). Ibiglustat, known as a GCS inhibitor, was used as a control.
After the cells attached to the culture dish were washed with phosphate buffered saline (PBS), the cells were scraped off with a cell scraper and then centrifuged (4000 rpm, 3 min, 4 °C) to collect the cells in a 50 ml tube. The cell pellets were suspended in a lysis buffer (50 mM HEPES, pH 7.3, containing 1× the protease/phosphatase inhibitor cocktail), lysed by sonication, and then the lysate was centrifuged (13000 rpm, 10 min, 4° C.). The obtained supernatant was used for the quantitative analysis of proteins. The amount of proteins was measured using the BCA protein assay kit, using bovine serum albumin as a standard.
Enzymatic reactions were initiated by sequentially adding the following reaction materials to a 96 deep-well plate. Thereafter, the enzymatic reactions were performed at 37° C. for 90 minutes.
The enzymatic reactions were stopped by adding 100 μl of chloroform/methanol (2:1, v/v). […] The lower layer (50 μl) was transferred to a new 96 deep-well plate and dried with a reduced concentrator.
Lipids were dissolved in 100 μl of isopropyl alcohol/n-hexane/H2O (55:44:1, v/v/v) and then transferred to a glass vial for HPLC (Agilent, 8004-HP-H/i3u). The sample (100 μl) was automatically loaded onto a normal-phase column (Intersil SIL 150A-5, 4.6×250 mm, GL Sciences, Japan) and then eluted at a flow rate of 2.0 ml/min with isopropyl alcohol/n-hexane/H2O (55:44:1, v/v/v). The fluorescence thereof was measured with a fluorescence detector (Agilent, 1260 FLD Spectra), using 470 nm and 530 nm as excitation and emission wavelengths, respectively.
Data analysis was performed by the following equations.
% Area (Sample)=Area (GlcCer)/[Area (Cer)+Area (GlcCer)]×100%
GCS activity=[Area (Sample)−Area (ibiglustat)]/[Area (DMSO)−Area (ibiglustat)]×100
The obtained % GCS activity data was analyzed with the software GraphPad Prism (Ver 5.01) to calculate the IC50 values.

Chain of glucosylceramide synthase (GCS) (Q16739 whole entry): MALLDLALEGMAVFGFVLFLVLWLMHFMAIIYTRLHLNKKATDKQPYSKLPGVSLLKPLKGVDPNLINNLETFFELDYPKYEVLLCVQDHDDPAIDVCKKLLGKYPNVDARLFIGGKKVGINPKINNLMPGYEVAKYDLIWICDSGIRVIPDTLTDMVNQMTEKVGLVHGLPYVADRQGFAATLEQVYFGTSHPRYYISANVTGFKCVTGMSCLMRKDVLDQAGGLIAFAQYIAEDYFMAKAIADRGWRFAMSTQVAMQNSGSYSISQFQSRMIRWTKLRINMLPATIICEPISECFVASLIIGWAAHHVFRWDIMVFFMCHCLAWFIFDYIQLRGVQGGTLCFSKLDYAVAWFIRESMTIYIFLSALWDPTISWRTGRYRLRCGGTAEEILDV

Regarding `CC1(C)Cc2cc(-c3ccc(OCC(F)(F)F)cc3Cl)c(F)cc2[C@@H]1NC(=O)O[C@@H]1CN2CCC1CC2` [Example 114, (S)-quinuclidin-3-yl((R)-5-(2-chloro-4-(2,2,2-trifluoroethoxy)phenyl)-6-fluoro-2,2-dimethyl-2,3-dihydro-1H-inden-1-yl)carbamate], the IC50 in experiment [1] (Homo sapiens, Jurkat, 72 h) was 1.7 nM; in experiment [2], 0.2 nM.

With `CCc1ccc(-c2cc3c(cc2C)[C@H](NC(=O)O[C@@H]2CN4CCC2CC4)C(C)(C)C3)cc1` [Example 115, (S)-quinuclidin-3-yl((R)-5-(4-ethylphenyl)-2,2,6-trimethyl-2,3-dihydro-1H-inden-1-yl)carbamate], the IC50 came to 5.09 nM in experiment [1] (Homo sapiens, Jurkat, 72 h) and 0.43 nM in experiment [2].

On to `CCCc1ccc(-c2cc3c(cc2C)[C@H](NC(=O)O[C@@H]2CN4CCC2CC4)C(C)(C)C3)cc1` [Example 116, (S)-quinuclidin-3-yl((R)-2,2,6-trimethyl-5-(4-propylphenyl)-2,3-dihydro-1H-inden-1-yl)carbamate], for which the IC50 in experiment [1] (Homo sapiens, Jurkat, 72 h) worked out at 3.82 nM; in experiment [2] it was 0.31 nM.

Consider `Cc1cc2c(cc1-c1ccc(C(C)C)cc1)CC(C)(C)[C@H]2NC(=O)O[C@@H]1CN2CCC1CC2` [Example 117, (S)-quinuclidin-3-yl((R)-5-(4-isopropylphenyl)-2,2,6-trimethyl-2,3-dihydro-1H-inden-1-yl)carbamate], for which the IC50 in experiment [1] (Homo sapiens, Jurkat, 72 h) came out at 4.42 nM; in experiment [2], 0.47 nM.

As for `CCCCc1ccc(-c2cc3c(cc2C)[C@H](NC(=O)O[C@@H]2CN4CCC2CC4)C(C)(C)C3)cc1` [Example 118, (S)-quinuclidin-3-yl((R)-5-(4-butylphenyl)-2,2,6-trimethyl-2,3-dihydro-1H-inden-1-yl)carbamate], the IC50 in experiment [1] (Homo sapiens, Jurkat, 72 h) amounted to 1.55 nM; in experiment [2], 0.2 nM.

As for `Cc1cc2c(cc1-c1ccc(CC(C)C)cc1)CC(C)(C)[C@H]2NC(=O)O[C@@H]1CN2CCC1CC2` [Example 119, (S)-quinuclidin-3-yl((R)-5-(4-isobutylphenyl)-2,2,6-trimethyl-2,3-dihydro-1H-inden-1-yl)carbamate], the IC50 turned out to be 4.95 nM in experiment [1] (Homo sapiens, Jurkat, 72 h) and 0.23 nM in experiment [2].

For `CCOc1ccc(-c2cc3c(cc2C)[C@H](NC(=O)O[C@@H]2CN4CCC2CC4)C(C)(C)C3)cc1` [Example 120, (S)-quinuclidin-3-yl((R)-5-(4-ethoxyphenyl)-2,2,6-trimethyl-2,3-dihydro-1H-inden-1-yl)carbamate], the IC50 was 7.66 nM in experiment [1] (Homo sapiens, Jurkat, 72 h) and 0.31 nM in experiment [2].

For the compound `CCCOc1ccc(-c2cc3c(cc2C)[C@H](NC(=O)O[C@@H]2CN4CCC2CC4)C(C)(C)C3)cc1` [Example 121, (S)-quinuclidin-3-yl((R)-2,2,6-trimethyl-5-(4-propoxyphenyl)-2,3-dihydro-1H-inden-1-yl)carbamate], the IC50 was determined as 2.79 nM in experiment [1] (Homo sapiens, Jurkat, 72 h) and 0.28 nM in experiment [2].

Take `Cc1cc2c(cc1-c1ccc(OC(C)C)cc1)CC(C)(C)[C@H]2NC(=O)O[C@@H]1CN2CCC1CC2` [Example 122, (S)-quinuclidin-3-yl((R)-5-(4-isopropoxyphenyl)-2,2,6-trimethyl-2,3-dihydro-1H-inden-1-yl)carbamate]: the IC50 is 3.66 nM in experiment [1] (Homo sapiens, Jurkat, 72 h) and 0.34 nM in experiment [2].

`CCCCOc1ccc(-c2cc3c(cc2C)[C@H](NC(=O)O[C@@H]2CN4CCC2CC4)C(C)(C)C3)cc1` [Example 123, (S)-quinuclidin-3-yl((R)-5-(4-butoxyphenyl)-2,2,6-trimethyl-2,3-dihydro-1H-inden-1-yl)carbamate]: the IC50 came out at 1.26 nM in experiment [1] (Homo sapiens, Jurkat, 72 h) and 0.24 nM in experiment [2].

Turning to `Cc1cc2c(cc1-c1ccc(OCC(C)C)cc1)CC(C)(C)[C@H]2NC(=O)O[C@@H]1CN2CCC1CC2` [Example 124, (S)-quinuclidin-3-yl((R)-5-(4-isobutoxyphenyl)-2,2,6-trimethyl-2,3-dihydro-1H-inden-1-yl)carbamate], the IC50 in experiment [1] (Homo sapiens, Jurkat, 72 h) turned out to be 1.13 nM; in experiment [2] it was 0.2 nM.

For the compound `Cc1cc2c(cc1-c1ccc(OC(C)C)c(Cl)c1)CC(C)(C)[C@H]2NC(=O)O[C@@H]1CN2CCC1CC2` [Example 125, (S)-quinuclidin-3-yl((R)-5-(3-chloro-4-isopropoxyphenyl)-2,2,6-trimethyl-2,3-dihydro-1H-inden-1-yl)carbamate], the IC50 came to 10.8 nM in experiment [1] (Homo sapiens, Jurkat, 72 h) and 2.17 nM in experiment [2].

On to `COc1ccc(-c2cc3c(cc2C)[C@H](NC(=O)O[C@@H]2CN4CCC2CC4)C(C)(C)C3)c(F)c1` [Example 126, (S)-quinuclidin-3-yl((R)-5-(2-fluoro-4-methoxyphenyl)-2,2,6-trimethyl-2,3-dihydro-1H-inden-1-yl)carbamate], for which the IC50 in experiment [1] (Homo sapiens, Jurkat, 72 h) was determined as 18 nM; in experiment [2], 1.48 nM.

Turning to `CCOc1cc2c(cc1-c1ccc(CC)cc1)CC(C)(C)[C@H]2NC(=O)O[C@@H]1CN2CCC1CC2` [Example 127, (S)-quinuclidin-3-yl((R)-6-ethoxy-5-(4-ethylphenyl)-2,2-dimethyl-2,3-dihydro-1H-inden-1-yl)carbamate], the IC50 in experiment [1] (Homo sapiens, Jurkat, 72 h) stood at 8.02 nM; in experiment [2], 1.82 nM.

Consider `CCCc1ccc(-c2cc3c(cc2OCC)[C@H](NC(=O)O[C@@H]2CN4CCC2CC4)C(C)(C)C3)cc1` [Example 128, (S)-quinuclidin-3-yl((R)-6-ethoxy-2,2-dimethyl-5-(4-propylphenyl)-2,3-dihydro-1H-inden-1-yl)carbamate], for which the IC50 is 6.49 nM in experiment [1] (Homo sapiens, Jurkat, 72 h) and 1.8 nM in experiment [2].

For `CCOc1cc2c(cc1-c1ccc(C(C)C)cc1)CC(C)(C)[C@H]2NC(=O)O[C@@H]1CN2CCC1CC2` [Example 129, (S)-quinuclidin-3-yl((R)-6-ethoxy-5-(4-isopropylphenyl)-2,2-dimethyl-2,3-dihydro-1H-inden-1-yl)carbamate], the IC50 in experiment [1] (Homo sapiens, Jurkat, 72 h) was 8.11 nM; in experiment [2], 2.31 nM.

Consider `CCCCc1ccc(-c2cc3c(cc2OCC)[C@H](NC(=O)O[C@@H]2CN4CCC2CC4)C(C)(C)C3)cc1` [Example 130, (S)-quinuclidin-3-yl((R)-5-(4-butylphenyl)-6-ethoxy-2,2-dimethyl-2,3-dihydro-1H-inden-1-yl)carbamate], for which the IC50 is 1.53 nM in experiment [1] (Homo sapiens, Jurkat, 72 h) and 0.75 nM in experiment [2].

Regarding `CCOc1cc2c(cc1-c1ccc(CC(C)C)cc1)CC(C)(C)[C@H]2NC(=O)O[C@@H]1CN2CCC1CC2` [Example 131, (S)-quinuclidin-3-yl((R)-6-ethoxy-5-(4-isobutylphenyl)-2,2-dimethyl-2,3-dihydro-1H-inden-1-yl)carbamate], the IC50 worked out at 6.47 nM in experiment [1] (Homo sapiens, Jurkat, 72 h) and 2.01 nM in experiment [2].

As to `CCOc1ccc(-c2cc3c(cc2OCC)[C@H](NC(=O)O[C@@H]2CN4CCC2CC4)C(C)(C)C3)cc1` [Example 132, (S)-quinuclidin-3-yl((R)-6-ethoxy-5-(4-ethoxyphenyl)-2,2-dimethyl-2,3-dihydro-1H-inden-1-yl)carbamate], the IC50 in experiment [1] (Homo sapiens, Jurkat, 72 h) was determined as 7.62 nM; in experiment [2], 1.6 nM.

As to `CCCOc1ccc(-c2cc3c(cc2OCC)[C@H](NC(=O)O[C@@H]2CN4CCC2CC4)C(C)(C)C3)cc1` [Example 133, (S)-quinuclidin-3-yl((R)-6-ethoxy-2,2-dimethyl-5-(4-propoxyphenyl)-2,3-dihydro-1H-inden-1-yl) carbamate], the IC50 stood at 2.63 nM in experiment [1] (read-out: IC50) and 0.5 nM in experiment [2] (% GCS activity, A549 cell lysate, 37° C. for 90 minutes, read-out: IC50).

Consider `CCOc1cc2c(cc1-c1ccc(OC(C)C)cc1)CC(C)(C)[C@H]2NC(=O)O[C@@H]1CN2CCC1CC2` [Example 134, (S)-quinuclidin-3-yl((R)-6-ethoxy-5-(4-isopropoxyphenyl)-2,2-dimethyl-2,3-dihydro-1H-inden-1-yl)carbamate], for which the IC50 in experiment [1] (Homo sapiens, Jurkat, 72 h) stood at 3.8 nM; in experiment [2], 0.71 nM.

On to `CCCCOc1ccc(-c2cc3c(cc2OCC)[C@H](NC(=O)O[C@@H]2CN4CCC2CC4)C(C)(C)C3)cc1` [Example 135, (S)-quinuclidin-3-yl((R)-5-(4-butoxyphenyl)-6-ethoxy-2,2-dimethyl-2,3-dihydro-1H-inden-1-yl)carbamate], for which the IC50 is 1.46 nM in experiment [1] (Homo sapiens, Jurkat, 72 h) and 0.51 nM in experiment [2].

As to `CCOc1cc2c(cc1-c1ccc(OCC(C)C)cc1)CC(C)(C)[C@H]2NC(=O)O[C@@H]1CN2CCC1CC2` [Example 136, (S)-quinuclidin-3-yl((R)-6-ethoxy-5-(4-isobutoxyphenyl)-2,2-dimethyl-2,3-dihydro-1H-inden-1-yl)carbamate], the IC50 turned out to be 0.87 nM in experiment [1] (Homo sapiens, Jurkat, 72 h) and 0.41 nM in experiment [2].

For the compound `CCOc1cc2c(cc1-c1ccc(OC(C)C)c(Cl)c1)CC(C)(C)[C@H]2NC(=O)O[C@@H]1CN2CCC1CC2` [Example 137, (S)-quinuclidin-3-yl((R)-5-(3-chloro-4-isopropoxyphenyl)-6-ethoxy-2,2-dimethyl-2,3-dihydro-1H-inden-1-yl)carbamate], the IC50 worked out at 12.8 nM in experiment [1] (Homo sapiens, Jurkat, 72 h) and 3.04 nM in experiment [2].
